These molecules were tested against T1, p53 Y220C (Homo sapiens, UniProt P04637, Y220C) (assay: In vitro DNA binding activity assay (HTRF / TR-FRET): stabilization of p53 Y220C and increase of its DNA binding activity). Settings: recombinant His-tagged p53 Y220C DNA binding domain (aa 94-312), biotin-labeled consensus DNA, incubated at 27° C. or 29° C. for 60 min.
T1 construct: The recombinant protein was a truncation mutant containing only amino acids 94-312 of p53; made in house; host or cells: E. coli
Format: biochemical
Method in brief: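 Stabilization of the mutant is inferred from increased binding of His-tagged p53 Y220C to a biotin-labeled consensus DNA, detected by HTRF with europium-streptavidin and APC-anti-His antibody. The concentration giving a 50% rise over compound-free binding is reported as SC150.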

T1 sequence (P04637 94-312, change not shown): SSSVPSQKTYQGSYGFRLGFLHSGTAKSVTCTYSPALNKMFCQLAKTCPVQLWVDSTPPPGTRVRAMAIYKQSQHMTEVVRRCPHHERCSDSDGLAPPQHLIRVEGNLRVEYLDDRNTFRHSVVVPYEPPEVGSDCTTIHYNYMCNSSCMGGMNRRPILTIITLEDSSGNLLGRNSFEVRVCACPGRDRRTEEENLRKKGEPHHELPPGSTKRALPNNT

| SC150 (concentration of the compound required to increase the DNA binding activity by 50%) | SMILES |
| --- | --- |
| + (+ = 0 μM ≤ SC150 < 0.05 μM) | COc1cc(S(N)(=O)=O)ccc1NCC#Cc1cc2c(N[C@H]3CC[C@@H](N4CC5(CCOCC5)C4)CC3)cccc2n1CC(F)(F)F [Compound 298A, 3-methoxy-4-{[3-(4-{[(1S,4S)-4-{7-oxa-2-azaspiro[3.5]nonan-2-yl}cyclohexyl]amino}-1-(2,2,2-trifluoroethyl)-1H-indol-2-yl)prop-2-yn-1-yl]amino}benzene-1-sulfonamide] |
| + (+ = 0 μM ≤ SC150 < 0.05 μM) | COc1cc(S(C)(=O)=O)ccc1NCC#Cc1cc2c(N[C@@H]3CCN(C(C)(C)C)C[C@@H]3F)cccc2n1CC(F)(F)F [Compound 1068A, N-((3S,4R)-1-(tert-butyl)-3-fluoropiperidin-4-yl)-2-(3-((2-methoxy-4-(methylsulfonyl)phenyl)amino)prop-1-yn-1-yl)-1-(2,2,2-trifluoroethyl)-1H-indol-4-amine] |
| + (+ = 0 μM ≤ SC150 < 0.05 μM) | CCC(=O)N1CC[C@H](Nc2cccc3c2cc(C#CCNc2ccc(S(C)(=O)=O)cc2OC)n3CC(F)(F)F)[C@H](F)C1 [Compound 865A, 1-[(3R,4S)-3-fluoro-4-[(2-{3-[(4-methanesulfonyl-2-methoxyphenyl)amino]prop-1-yn-1-yl}-1-(2,2,2-trifluoroethyl)-1H-indol-4-yl)amino]piperidin-1-yl]propan-1-one] |
| + (+ = 0 μM ≤ SC150 < 0.05 μM) | COc1cc(S(=O)(=O)NC(C)=O)ccc1NCC#Cc1cc2c(N[C@H]3CC[C@@H](N4CC5(COC5)C4)CC3)cccc2n1CC(F)(F)F [Compound 209A, N-(3-methoxy-4-{[3-(4-{[(1S,4S)-4-{2-oxa-6-azaspiro[3.3]heptan-6-yl}cyclohexyl]amino}-1-(2,2,2-trifluoroethyl)-1H-indol-2-yl)prop-2-yn-1-yl]amino}benzene-sulfonyl)acetamide] |
| ++ (++ = 0.05 μM ≤ SC150 < 0.1 μM) | COCC(O)CN1CCC(Nc2cccc3c2cc(C#CCNc2ccc(S(C)(=O)=O)cc2OC)n3CCC(F)(F)F)CC1 (stereo not drawn) [Compound 711A, 1-{4-[(2-{3-[(4-methanesulfonyl-2-methoxyphenyl)amino]prop-1-yn-1-yl}-1-(3,3,3-trifluoropropyl)-1H-indol-4-yl)amino]piperidin-1-yl}-3-methoxypropan-2-ol] |
| + (+ = 0 μM ≤ SC150 < 0.05 μM) | COCC(O)CN1CCC(Nc2cccc3c2cc(C#CCNc2cc(F)c(C(N)=O)cc2OC)n3CC(F)(F)F)CC1 (stereo not drawn) [Compound 683A, 2-fluoro-4-{[3-(4-{[1-(2-hydroxy-3-methoxypropyl)piperidin-4-yl]amino}-1-(2,2,2-trifluoroethyl)-1H-indol-2-yl)prop-2-yn-1-yl]amino}-5-methoxybenzamide] |
| ++++ (++++ = 0.2 μM ≤ SC150 < 1 μM) | COCCN1CCC(NC(=O)Nc2cccc3c2cc(C#CCNc2ccc(S(C)(=O)=O)cc2OC)n3CC(F)(F)F)CC1 [Compound 13A, 3-(2-{3-[(4-methanesulfonyl-2-methoxyphenyl)amino]prop-1-yn-1-yl}-1-(2,2,2-trifluoroethyl)-1H-indol-4-yl)-1-[1-(2-methoxyethyl)piperidin-4-yl]urea] |
| + (+ = 0 μM ≤ SC150 < 0.05 μM) | COc1cc(S(C)(=O)=O)ccc1NCC#Cc1cc2c(N[C@H]3CCCC[C@H]3N)cccc2n1CC(F)(F)F (racemic) [Compound 29A, rac-(1R,2S)-N^1-(2-{3-[(4-methanesulfonyl-2-methoxyphenyl)amino]prop-1-yn-1-yl}-1-(2,2,2-trifluoroethyl)-1H-indol-4-yl)cyclo-hexane-1,2-diamine] |
| + (+ = 0 μM ≤ SC150 < 0.05 μM) | COCC(O)CN1CCCC(Nc2cccc3c2cc(C#CCNc2ccc(S(C)(=O)=O)cc2OC)n3CC(F)(F)F)CC1 (stereo not drawn) [Compound 989A, 1-{4-[(2-{3-[(4-methanesulfonyl-2-methoxyphenyl)amino]prop-1-yn-1-yl}-1-(2,2,2-trifluoroethyl)-1H-indol-4-yl)amino]azepan-1-yl}-3-methoxypropan-2-ol] |
| + (+ = 0 μM ≤ SC150 < 0.05 μM) | COc1cc(S(=O)(=O)N2CCN(C)CC2)ccc1NCC#Cc1cc2c(NC3CCS(=O)(=O)CC3)cccc2n1CC(F)(F)F [Compound 1048A, 4-({2-[3-({2-methoxy-4-[(4-methylpiperazin-1-yl)sulfonyl]phenyl}amino)prop-1-yn-1-yl]-1-(2,2,2-trifluoroethyl)-1H-indol-4-yl}amino)-1λ^6-thiane-1,1-dione] |
| + (+ = 0 μM ≤ SC150 < 0.05 μM) | COCC(CN1CCC(Nc2cccc3c2cc(C#CCNc2ccc(S(C)(=O)=O)cc2OC)n3CC(F)(F)F)CC1)OC(=O)C(C)C (stereo not drawn) [Compound 603A, 1-{4-[(2-{3-[(4-methanesulfonyl-2-methoxyphenyl)amino]prop-1-yn-1-yl}-1-(2,2,2-trifluoroethyl)-1H-indol-4-yl)amino]piperidin-1-yl}-3-methoxypropan-2-yl 2-methylpropanoate] |
| + (+ = 0 μM ≤ SC150 < 0.05 μM) | COc1cc(S(N)(=O)=O)ccc1NCC#Cc1cc2c(NC3CCN(C(C)=O)CC3)cccc2n1CC(F)(F)F [Compound 749A, 4-[(3-{4-[(1-acetylpiperidin-4-yl)amino]-1-(2,2,2-trifluoroethyl)-1H-indol-2-yl}prop-2-yn-1-yl)amino]-3-methoxybenzene-1-sulfonamide] |
| + (+ = 0 μM ≤ SC150 < 0.05 μM) | COc1cc(S(N)(=O)=O)ccc1NCC#Cc1cc2c(N[C@H]3CCN(C)C[C@H]3F)cccc2n1CC(F)(F)F [Compound 790A, 4-{[3-(4-{[(3R,4S)-3-fluoro-1-methylpiperidin-4-yl]amino}-1-(2,2,2-trifluoroethyl)-1H-indol-2-yl)prop-2-yn-1-yl]amino}-3-methoxybenzene-1-sulfonamide] |
| +++ (+++ = 0.1 μM ≤ SC150 < 0.2 μM) | CN(C)c1cc(S(C)(=O)=O)ccc1OCC#Cc1cc2c(N[C@H]3CC[C@H](N(C)C)CC3)cccc2n1CC(F)(F)F [Compound 112A, (1R,4R)-N^4-(2-{3-[2-(dimethylamino)-4-methanesulfonyl-phenoxy]prop-1-yn-1-yl}-1-(2,2,2-trifluoroethyl)-1H-indol-4-yl)-N^1,N^1-dimethylcyclohexane-1,4-diamine] |
| + (+ = 0 μM ≤ SC150 < 0.05 μM) | CNS(=O)(=O)c1ccc(NCC#Cc2cc3c(N[C@H]4CC[C@H](N5CCC6(CC5)COC6)CC4)cccc3n2CC(F)(F)F)c(OC)c1 [Compound 395A, 3-methoxy-N-methyl-4-{[3-(4-{[(1R,4R)-4-{2-oxa-7-azaspiro[3.5]nonan-7-yl}cyclohexyl]amino}-1-(2,2,2-trifluoroethyl)-1H-indol-2-yl)prop-2-yn-1-yl]amino}benzene-1-sulfonamide] |
| + (+ = 0 μM ≤ SC150 < 0.05 μM) | COCC(O)CN1CCC(Nc2cccc3c2cc(C#CCNc2ccc(S(=O)(=O)NC(C)=O)cc2OC)n3CC(F)(F)F)CC1 (stereo not drawn) [Compound 606A, N-(4-{[3-(4-{[1-(2-hydroxy-3-methoxypropyl)pipcridin-4-yl]amino}-1-(2,2,2-trifluoroethyl)-1H-indol-2-yl)prop-2-yn-1-yl]amino}-3-methoxybenzenesulfonyl) acetamide] |
| + (+ = 0 μM ≤ SC150 < 0.05 μM) | CN1CC[C@@H](Nc2cccc3c2cc(C#CCNC(=O)c2ccn(C)c2)n3CC(F)(F)F)[C@@H](F)C1 [Compound 953A, N-[3-(4-{[(3S,4R)-3-fluoro-1-methylpiperidin-4-yl]amino}-1-(2,2,2-trifluoroethyl)-1H-indol-2-yl)prop-2-yn-1-yl]-1-methyl-1H-pyrrole-3-carboxamide] |
| + (+ = 0 μM ≤ SC150 < 0.05 μM) | CNS(=O)(=O)c1ccc(NCC#Cc2cc3c(N[C@H]4CC[C@H](N5CC6(CCOCC6)C5)CC4)cccc3n2CC(F)(F)F)c(OC)c1 [Compound 327A, 4-((3-(4-(((1R,4R)-4-(7-oxa-2-azaspiro[3.5]nonan-2-yl)cyclohexyl)amino)-1-(2,2,2-trifluoroethyl)-1H-indol-2-yl)prop-2-yn-1-yl)amino)-3-methoxy-N-methyl-benzenesulfonamide] |
| +++ (+++ = 0.1 μM ≤ SC150 < 0.2 μM) | COCC(O)CN1CCC(Nc2cccc3c2cc(C#CCNc2ccc(C(F)(F)F)cc2OC)n3CC(F)(F)F)CC1 (stereo not drawn) [Compound 689A, 1-methoxy-3-(4-{[2-(3-{[2-methoxy-4-(trifluoromethyl)phenyl]amino}prop-1-yn-1-yl)-1-(2,2,2-trifluoroethyl)-1H-indol-4-yl]amino}piperidin-1-yl)propan-2-ol] |
| + (+ = 0 μM ≤ SC150 < 0.05 μM) | COCC(O)CN1CCC(Nc2cccc3c2cc(C#CCNc2ccc(S(C)(=O)=O)cc2OC(F)F)n3CC(F)(F)F)CC1 (stereo not drawn) [Compound 668A, 1-(4-{[2-(3-{[2-(difluoromethoxy)-4-methanesulfonylphenyl]amino}prop-1-yn-1-yl)-1-(2,2,2-trifluoroethyl)-1H-indol-4-yl]amino}piperidin-1-yl)-3-methoxypropan-2-ol] |

| SMILES | SC150 (concentration of the compound required to increase the DNA binding activity by 50%) |
| --- | --- |
| COc1cc(S(C)(=O)=O)ccc1NCC#Cc1cc2c(N[C@H]3CC[C@H](N4CC5CC(C4)O5)CC3)cccc2n1CC(F)(F)F [Compound 398A, 2-{3-[(4-methanesulfonyl-2-methoxyphenyl)amino]prop-1-yn-1-yl}-N-[(1R,4R)-4-{6-oxa-3-azabicyclo[3.1.1]heptan-3-yl}cyclohexyl]-1-(2,2,2-trifluoroethyl)-1H-indol-4-amine] | + (+ = 0 μM ≤ SC150 < 0.05 μM) |

Source: US12428406B2 (PMV Pharmaceuticals, Inc., priority 2019, dated 2025)
